Key:
Format in all cases: in vivo
Aspergillus flavus [1] = assay: Aspergillus flavus pulmonary infection model in compromised mice, oral treatment; settings: for %SURVIVAL / %ANIMALS NEG / CFU-GEO MEAN OF SURVIVORS: 18 days post infection; for %SURVIVAL: compromised CF-1 mice; for %ANIMALS NEG: negative = <10 colonies; for CFU-GEO MEAN OF SURVIVORS: geometric mean of the logarithm of CFU remaining in the lung
Aspergillus flavus [2] = assay: as above; settings: for %ANIMALS NEG / %SURVIVAL: 18 days post infection; for %ANIMALS NEG: negative = <10 colonies; for %SURVIVAL: compromised CF-1 mice
From the text: The in vivo oral antifungal activity of the compounds of Example 23-26 were compared to those of itraconazole, fluconazole and saperconazole in an Aspergillus pulmonary infection model in mice. The procedure of David Loebenberg et al. entitled "Sch 42427, The Active Enantiomer of Antifungal agent Sch 39304: In Vitro and In Vivo Activity" Antimicrobial Agents and Chemotherapy (1992), 36 498-501 was used. The Aspergillus flavus pulmonary model was run in the following manner Male, CF-1 mice weighing 20 grams were compromised with cortisone acetate (100 mg/kg), administered subcutaneously, once daily for 3 days. In addition, to prevent bacterial disease, tetracycline HCL (300 mg/1) was added to the drinking water and given ad libitum. On day 2 of compromising, mice were infected in an inhalation chamber, first described by Piggot and Emmons in 1960 and modified by us. The chamber is a 1 liter pyrex, thick-walled flask with 8 tubular side-arms that extend into the flask. Each side-arm is a pyrex tube of 14 cm length, constricted to a 1 cm opening inside the flask. The bottom of the flask was covered with a malt extract agar medium on which a sporulating culture of A. flavus ATCC 24133 was grown for 13 days at room temperature. The top of the flask was closed with a #10 stopper through which passed a glass tube attached by rubber tubing to a 60 mL syringe. Mice were placed in each of the side arms and pushed to the bottoms so that their nares extended beyond the open end of the tube and over the agar. Cotton plugs were then inserted behind the mice to hold them in place. By pumping the 60 mL syringe twice, air was forced over the culture and produced a cloud of spores. Mice were exposed to the spore cloud for one minute. Within 15-30 minutes after exposure, a number of mice were sacrificed and lung tissue samples homogenized for culture to determine the number of inhaled conidia. Oral treatment began 24 h post-infection with doses of 5 to 250 mg of drug/kg in ethanol; vehicle (115 ml of Emulphor EL-719P, GAF, Wayne, NJ; and 5 ml of 20% w/v lactic acid per liter of water), 10:90 v/v, once daily for 4 days.
The procedure of Example 31 was used to compare the in vivo oral antifungal activity of (±)-5R/S-(cis)-4-[4-[4-[4-[[5-(2,4-difluorophenyl)-5-(1H-1,2,4-triazol-1-ylmethyl) tetrahydrofuran-3-yl]methoxy-phenyl-1-piperazinyl]phenyl]-2,4-dihydro-2[(R/S)-(1-methylpropyl)]-3H-1,2,4-triazol-3-one with (±)-2R/S-(cis)-1-[4-[[2-(2,4-difluorophenyl)-2-(1H-1,2,4-triazol-1-ylmethyl) tetrahydro-4-furanyl]methoxy]phenyl]-4-(1-methylethyl)piperazine of Example 68 of USP 5,039,676 in an Aspergillus pulmonary infection model described in Example 31. […]
The procedures of Examples 31 and 34 were used.

C. albicans C-43 = assay: Candida systemic model in CF1 mice infected IV with C. albicans C-43, oral treatment; settings: for %SURVIVAL: day 4 post-infection; for CFUs (GM): day 4, geometric mean of the logarithms of CFU remaining in the kidneys (dead mice counted as 10^9)
Experimental: The compounds of Examples 23-26 and itraconazole, fluconazole, and saperconazole were tested for in vivo oral antifungal activity in a Candida systemic model using CF1 male mice , average weight 20 g, Harlan Sprague Dawley, Inc., Indianapolis, Ind. infected by IV injection into the tail vein of C. albicans C-43 (5 million CFUs). […] Oral efficacy was measured after four (4) days by percent survival and by the number of organisms remaining in the kidneys i.e., the Colony Forming Units (CFUs). The mice were sacrificed and the kidneys of individual mice were homogenized in sterile saline, diluted and spread onto Mycosel agar. Colony counts were determined after 48 hours at 37°C. For calculation of geometric means, mice that died during the experiment were considered to have 10^9 CFUs/kidneys (based on numerous previous experiments).

[3] = 33 mg/kg PO [3RX/DAY] for 4 days
[4] = 33 mg/kg PO once a day for 4 days
[5] = 66 mg/kg PO once a day for 4 days
[6] = 100 mg/kg PO once a day for 4 days
[7] = 10 MPK PO in PEG-200, 1 a day x 4 days
[8] = 25 MPK PO in PEG-200, 1 a day x 4 days
[9] = 50 MPK PO in PEG-200, 1 a day x 4 days
[10] = 1 MPK PO in PEG-200, 1 a day x 4 days

Compound	%SURVIVAL (Aspergillus flavus [1]; [3]) [%]	%ANIMALS NEG (Aspergillus flavus [1]; [3]) [%]	%ANIMALS NEG (Aspergillus flavus [2]; [4]) [%]	%ANIMALS NEG (Aspergillus flavus [2]; [5]) [%]	%SURVIVAL (Aspergillus flavus [2]; [6]) [%]	%ANIMALS NEG (Aspergillus flavus [2]; [6]) [%]	%SURVIVAL (C. albicans C-43; [7]) [%]	CFUs (GM) (C. albicans C-43; 10 MPK PO in PEG-200)	%SURVIVAL (C. albicans C-43; [8]) [%]	CFUs (GM) (C. albicans C-43; 25 MPK PO in PEG-200)	%SURVIVAL (C. albicans C-43; [9]) [%]	CFUs (GM) (C. albicans C-43; 50 MPK PO in PEG-200)	CFU-GEO MEAN OF SURVIVORS (Aspergillus flavus [1]; [3])	CFU-GEO MEAN OF SURVIVORS (Aspergillus flavus [1]; [6])	%SURVIVAL (Aspergillus flavus [2]; [4]) [%]	%SURVIVAL (Aspergillus flavus [2]; [5]) [%]	%SURVIVAL (C. albicans C-43; [10]) [%]	CFUs (GM) (C. albicans C-43; 1 MPK PO in PEG-200)	further results
CCC(C)n1ncn(-c2ccc(N3CCN(c4ccc(OCC5COC(Cn6cncn6)(c6ccc(Cl)cc6Cl)O5)cc4)CC3)cc2)c1=O (stereo not shown) [Itraconazole, reference compound]	10	0	0	0	20	0	0	9.00	0	9.00	60	6.68	–	–	–	–	–	–	%SURVIVAL (Aspergillus flavus [1]; [4]): 0%; %SURVIVAL (Aspergillus flavus [1]; [5]): 0%; PERCENT SURVIVAL AFTER 5 DAYS (5D) (Aspergillus flavus [1]; head prints 50 mg/kg (third dose column, c3), in PEG-200 daily for 4 days, CF-1 mice): 17
CC[C@@H](C)n1ncn(-c2ccc(N3CCN(c4ccc(OC[C@@H]5CO[C@@](Cn6cncn6)(c6ccc(F)cc6F)C5)cc4)CC3)cc2)c1=O [Example 23]	60	10	0	0	70	10	50	6.78	80	5.90	90	5.62	1.08	1.85	10	10	10	8.57	–
CC[C@H](C)n1ncn(-c2ccc(N3CCN(c4ccc(OC[C@@H]5CO[C@@](Cn6cncn6)(c6ccc(F)cc6F)C5)cc4)CC3)cc2)c1=O [Example 24, (-)-[(5R)-cis]-4-[4-[4-[4-[[5-(2,4-Difluorophenyl)-5-(1H-1,2,4-triazol-1-ylmethyl)tetrahydrofuran-3-yl]methoxy]phenyl]-1-piperazinyl]phenyl]-2,4-dihydro-2-[(1S)-(1-methylpropyl)]-3H-1,2,4-triazol-3-one]	40	0	0	0	100	20	40	7.42	100	5.14	100	4.99	2.4	1.95	0	50	30	7.88	CFU-GEO MEAN OF SURVIVORS (Aspergillus flavus [1]; [5]): 2.25; oral activity in the Aspergillus pulmonary mouse model (Aspergillus flavus [2]; PO, result in words (active / inactive)): exhibit oral activity; oral activity against Aspergillus flavus pulmonary infections compared with itraconazole, fluconazole and saperconazole (Aspergillus flavus [2]; in vivo mouse model, PO, result in words): more active orally; oral activity in the Candida systemic model compared with itraconazole (C. albicans C-43; doses of 50, 25 and 10 mpk, each dissolved in PEG-200, result in words): more active orally

From patent publication EP0610377B1, “TRI-SUBSTITUTED TETRAHYDROFURAN ANTIFUNGALS” (SCHERING CORPORATION, priority 1991, dated 1993)
